Assay in all cases: biochemical
Common to all, as to type: binding

In experiment [1] the target is T1, panel of 442 kinases (Homo sapiens, UniProt Q8TDC3).
T1 construct: purchased Ambit Biosciences (scanMAXX KINOMEscan)
T1 sequence (Q8TDC3 1-778): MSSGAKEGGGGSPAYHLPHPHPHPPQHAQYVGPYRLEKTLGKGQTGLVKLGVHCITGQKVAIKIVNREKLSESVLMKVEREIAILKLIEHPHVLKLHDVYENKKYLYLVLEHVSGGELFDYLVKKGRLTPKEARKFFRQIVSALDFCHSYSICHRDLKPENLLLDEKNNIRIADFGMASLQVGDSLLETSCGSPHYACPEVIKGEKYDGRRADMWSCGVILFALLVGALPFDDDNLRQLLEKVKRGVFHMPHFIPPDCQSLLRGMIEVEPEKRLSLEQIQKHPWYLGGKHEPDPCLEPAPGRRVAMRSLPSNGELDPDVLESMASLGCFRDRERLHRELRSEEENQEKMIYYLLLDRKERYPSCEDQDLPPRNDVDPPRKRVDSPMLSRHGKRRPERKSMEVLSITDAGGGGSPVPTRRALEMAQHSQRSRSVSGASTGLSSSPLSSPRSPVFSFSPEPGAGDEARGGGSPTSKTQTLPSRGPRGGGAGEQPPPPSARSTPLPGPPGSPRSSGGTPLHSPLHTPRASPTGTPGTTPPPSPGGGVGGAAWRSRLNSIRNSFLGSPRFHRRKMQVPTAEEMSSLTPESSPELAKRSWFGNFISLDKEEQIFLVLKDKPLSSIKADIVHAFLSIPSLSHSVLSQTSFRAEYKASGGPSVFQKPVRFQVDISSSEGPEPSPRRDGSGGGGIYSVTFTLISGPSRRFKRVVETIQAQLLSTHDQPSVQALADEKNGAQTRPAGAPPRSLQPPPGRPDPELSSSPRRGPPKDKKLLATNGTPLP
The following applies: BRSK1; for remaining activity at 1 µM: read-out: % of control at 1 µM.

The target in experiment [2] is T2, panel of 442 kinases (Homo sapiens, UniProt Q15569).
T2 construct: purchased Ambit Biosciences (scanMAXX KINOMEscan)
The settings on record: kinase TESK1; for remaining activity at 1 µM: read-out: TESK1 (% of control at 1 µM).

Experiment [3] concerns the target T3, panel of 442 kinases (Homo sapiens, UniProt Q9UKI8).
T3 construct: purchased Ambit Biosciences (scanMAXX KINOMEscan)
T3 sequence (Q9UKI8 1-766): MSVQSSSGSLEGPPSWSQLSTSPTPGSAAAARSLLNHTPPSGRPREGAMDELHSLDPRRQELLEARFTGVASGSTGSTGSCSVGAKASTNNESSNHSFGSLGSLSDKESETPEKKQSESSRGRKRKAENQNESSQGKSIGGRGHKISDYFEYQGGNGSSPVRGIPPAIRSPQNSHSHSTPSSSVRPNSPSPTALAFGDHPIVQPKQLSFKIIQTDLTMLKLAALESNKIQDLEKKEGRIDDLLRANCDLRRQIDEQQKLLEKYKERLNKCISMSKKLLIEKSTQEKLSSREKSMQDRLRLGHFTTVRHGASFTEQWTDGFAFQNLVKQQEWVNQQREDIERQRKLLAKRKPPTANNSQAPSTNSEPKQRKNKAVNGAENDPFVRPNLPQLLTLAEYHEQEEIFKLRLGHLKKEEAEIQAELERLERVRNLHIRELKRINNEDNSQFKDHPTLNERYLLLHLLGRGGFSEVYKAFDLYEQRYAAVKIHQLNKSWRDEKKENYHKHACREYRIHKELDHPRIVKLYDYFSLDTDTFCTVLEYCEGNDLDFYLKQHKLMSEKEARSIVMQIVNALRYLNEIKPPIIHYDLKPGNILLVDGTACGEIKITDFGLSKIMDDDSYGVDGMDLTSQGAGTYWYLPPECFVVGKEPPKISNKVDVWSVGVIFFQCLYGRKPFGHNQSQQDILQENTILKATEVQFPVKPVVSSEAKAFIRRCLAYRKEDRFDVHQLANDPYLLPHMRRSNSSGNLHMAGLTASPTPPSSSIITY
The following applies: kinase TLK1; for remaining activity at 1 µM: read-out: TLK1 (% of control at 1 µM).

Experiment [4] has as its target T4, panel of 442 kinases (Homo sapiens, UniProt P80192).
T4 construct: purchased Ambit Biosciences (scanMAXX KINOMEscan)
The settings on record: kinase MLK1; for remaining activity at 1 µM: read-out: % of control at 1 µM.

In experiment [5] the target is T5, panel of 442 kinases (Homo sapiens, UniProt P00519, H396P).
T5 construct: purchased Ambit Biosciences (scanMAXX KINOMEscan)
The settings on record: for remaining activity at 1 µM: read-out: % of control at 1 µM; for remaining activity at 10 µM: read-out: % of control at 10 µM.

The target in experiment [6] is T6, panel of 442 kinases (Homo sapiens, UniProt Q15746).
T6 construct: purchased Ambit Biosciences (scanMAXX KINOMEscan)
T6 sequence (Q15746 whole entry): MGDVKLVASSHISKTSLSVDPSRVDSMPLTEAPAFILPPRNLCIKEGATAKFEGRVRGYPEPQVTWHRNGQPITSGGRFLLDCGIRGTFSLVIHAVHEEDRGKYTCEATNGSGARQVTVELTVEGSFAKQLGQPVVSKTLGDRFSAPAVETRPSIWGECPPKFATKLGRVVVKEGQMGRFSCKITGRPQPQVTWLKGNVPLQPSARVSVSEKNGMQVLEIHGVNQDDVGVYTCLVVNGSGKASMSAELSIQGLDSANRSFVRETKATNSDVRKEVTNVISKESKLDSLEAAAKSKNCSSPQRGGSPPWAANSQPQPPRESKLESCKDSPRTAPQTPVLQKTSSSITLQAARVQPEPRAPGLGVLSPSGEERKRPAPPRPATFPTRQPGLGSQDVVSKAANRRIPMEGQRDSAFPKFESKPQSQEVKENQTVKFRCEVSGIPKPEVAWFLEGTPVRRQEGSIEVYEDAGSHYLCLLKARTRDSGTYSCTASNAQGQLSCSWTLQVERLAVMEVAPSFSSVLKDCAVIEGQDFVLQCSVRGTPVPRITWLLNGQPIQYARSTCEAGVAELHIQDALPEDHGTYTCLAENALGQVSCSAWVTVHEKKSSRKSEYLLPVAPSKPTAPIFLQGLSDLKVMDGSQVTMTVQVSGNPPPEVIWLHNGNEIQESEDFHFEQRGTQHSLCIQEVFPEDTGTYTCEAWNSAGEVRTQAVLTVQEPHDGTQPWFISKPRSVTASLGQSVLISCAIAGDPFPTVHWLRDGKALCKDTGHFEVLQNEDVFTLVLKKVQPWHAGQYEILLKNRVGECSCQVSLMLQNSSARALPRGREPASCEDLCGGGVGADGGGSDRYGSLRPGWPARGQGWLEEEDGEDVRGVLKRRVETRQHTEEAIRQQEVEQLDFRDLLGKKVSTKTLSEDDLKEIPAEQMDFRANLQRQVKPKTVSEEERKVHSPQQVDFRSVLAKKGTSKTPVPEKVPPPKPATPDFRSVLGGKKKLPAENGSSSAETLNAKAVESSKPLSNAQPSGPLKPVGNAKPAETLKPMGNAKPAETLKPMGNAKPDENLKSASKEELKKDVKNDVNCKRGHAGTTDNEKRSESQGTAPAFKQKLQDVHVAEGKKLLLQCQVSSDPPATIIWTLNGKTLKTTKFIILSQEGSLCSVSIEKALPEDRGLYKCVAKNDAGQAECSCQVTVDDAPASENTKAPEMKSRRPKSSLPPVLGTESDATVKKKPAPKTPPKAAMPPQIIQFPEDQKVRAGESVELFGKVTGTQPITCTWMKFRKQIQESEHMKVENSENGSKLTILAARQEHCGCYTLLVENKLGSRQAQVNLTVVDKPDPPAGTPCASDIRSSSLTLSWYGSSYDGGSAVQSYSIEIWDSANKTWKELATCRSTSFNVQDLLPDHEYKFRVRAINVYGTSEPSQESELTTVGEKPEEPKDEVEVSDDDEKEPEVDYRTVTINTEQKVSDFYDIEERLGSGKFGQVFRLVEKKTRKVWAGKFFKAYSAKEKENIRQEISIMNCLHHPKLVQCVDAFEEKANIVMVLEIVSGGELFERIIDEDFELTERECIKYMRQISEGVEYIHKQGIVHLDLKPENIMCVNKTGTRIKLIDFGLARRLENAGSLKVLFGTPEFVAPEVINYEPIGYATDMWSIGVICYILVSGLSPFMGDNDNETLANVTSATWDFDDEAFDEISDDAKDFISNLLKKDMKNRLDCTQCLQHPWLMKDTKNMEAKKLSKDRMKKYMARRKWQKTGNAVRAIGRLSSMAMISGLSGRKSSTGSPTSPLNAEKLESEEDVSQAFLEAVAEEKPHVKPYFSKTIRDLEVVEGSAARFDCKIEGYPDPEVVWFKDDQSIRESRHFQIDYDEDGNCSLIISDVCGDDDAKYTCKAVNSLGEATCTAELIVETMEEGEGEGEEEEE
The settings on record: kinase MYLK; for remaining activity at 1 µM: read-out: % of control at 1 µM.

The target of experiment [7] is T7, panel of 442 kinases (Homo sapiens, UniProt P21127).
T7 construct: purchased Ambit Biosciences (scanMAXX KINOMEscan)
T7 sequence (P21127 whole entry): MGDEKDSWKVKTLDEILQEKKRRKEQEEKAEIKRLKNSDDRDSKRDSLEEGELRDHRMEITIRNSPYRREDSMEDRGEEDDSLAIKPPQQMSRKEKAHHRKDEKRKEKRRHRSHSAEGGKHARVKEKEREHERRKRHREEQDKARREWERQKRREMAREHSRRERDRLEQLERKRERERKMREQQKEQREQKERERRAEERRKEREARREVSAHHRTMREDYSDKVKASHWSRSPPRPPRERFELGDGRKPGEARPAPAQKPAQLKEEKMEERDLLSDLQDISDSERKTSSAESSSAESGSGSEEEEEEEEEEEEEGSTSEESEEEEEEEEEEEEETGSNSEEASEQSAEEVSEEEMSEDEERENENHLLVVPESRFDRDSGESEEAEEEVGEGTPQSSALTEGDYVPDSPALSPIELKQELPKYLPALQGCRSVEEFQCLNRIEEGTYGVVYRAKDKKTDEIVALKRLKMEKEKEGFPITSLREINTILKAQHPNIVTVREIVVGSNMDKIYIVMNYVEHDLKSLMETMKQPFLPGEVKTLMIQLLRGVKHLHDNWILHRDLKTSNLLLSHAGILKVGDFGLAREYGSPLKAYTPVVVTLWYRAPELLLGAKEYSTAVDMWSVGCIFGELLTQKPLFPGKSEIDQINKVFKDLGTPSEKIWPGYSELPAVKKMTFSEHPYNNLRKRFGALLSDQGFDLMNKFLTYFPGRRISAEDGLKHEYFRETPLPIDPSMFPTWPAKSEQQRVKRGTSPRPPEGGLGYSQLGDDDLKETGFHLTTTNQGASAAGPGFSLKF
The settings on record: CDC2L1; for remaining activity at 1 µM: read-out: % of control at 1 µM.

The target of experiment [8] is T8, panel of 442 kinases (Homo sapiens, UniProt O95819).
T8 construct: purchased Ambit Biosciences (scanMAXX KINOMEscan)
The settings on record: kinase MAP4K4; for remaining activity at 1 µM: read-out: % of control at 1 µM.

Experiment [9] concerns the target T9, panel of 442 kinases (Homo sapiens, UniProt P07949, M918T).
T9 construct: purchased Ambit Biosciences (scanMAXX KINOMEscan)
The following applies: kinase RET(M918T); for remaining activity at 1 µM: read-out: RET(M918T) (% of control at 1 µM).

Experiment [10] concerns the target T10, panel of 442 kinases (Homo sapiens, UniProt O15264).
T10 construct: purchased Ambit Biosciences (scanMAXX KINOMEscan)
T10 sequence (O15264 1-365): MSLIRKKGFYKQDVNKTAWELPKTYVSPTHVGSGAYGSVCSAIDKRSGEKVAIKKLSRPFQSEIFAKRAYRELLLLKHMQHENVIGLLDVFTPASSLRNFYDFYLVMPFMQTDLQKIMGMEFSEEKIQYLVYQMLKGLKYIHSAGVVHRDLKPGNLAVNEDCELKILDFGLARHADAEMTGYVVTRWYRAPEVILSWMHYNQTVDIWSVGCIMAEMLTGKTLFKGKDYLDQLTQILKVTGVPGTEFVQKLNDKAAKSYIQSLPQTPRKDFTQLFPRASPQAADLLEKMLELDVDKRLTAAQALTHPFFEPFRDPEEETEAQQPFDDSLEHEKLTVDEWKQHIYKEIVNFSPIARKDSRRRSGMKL
The settings on record: kinase p38-delta; for remaining activity at 1 µM: read-out: % of control at 1 µM.

The mark [11] stands for this setting: 10 µM, read-out: % of control at 10 µM.

SMILES strings stand for the structures. Read-outs that look alike come from different tables or passages of the source.

T9 sequence (P07949 29-1114 M918T): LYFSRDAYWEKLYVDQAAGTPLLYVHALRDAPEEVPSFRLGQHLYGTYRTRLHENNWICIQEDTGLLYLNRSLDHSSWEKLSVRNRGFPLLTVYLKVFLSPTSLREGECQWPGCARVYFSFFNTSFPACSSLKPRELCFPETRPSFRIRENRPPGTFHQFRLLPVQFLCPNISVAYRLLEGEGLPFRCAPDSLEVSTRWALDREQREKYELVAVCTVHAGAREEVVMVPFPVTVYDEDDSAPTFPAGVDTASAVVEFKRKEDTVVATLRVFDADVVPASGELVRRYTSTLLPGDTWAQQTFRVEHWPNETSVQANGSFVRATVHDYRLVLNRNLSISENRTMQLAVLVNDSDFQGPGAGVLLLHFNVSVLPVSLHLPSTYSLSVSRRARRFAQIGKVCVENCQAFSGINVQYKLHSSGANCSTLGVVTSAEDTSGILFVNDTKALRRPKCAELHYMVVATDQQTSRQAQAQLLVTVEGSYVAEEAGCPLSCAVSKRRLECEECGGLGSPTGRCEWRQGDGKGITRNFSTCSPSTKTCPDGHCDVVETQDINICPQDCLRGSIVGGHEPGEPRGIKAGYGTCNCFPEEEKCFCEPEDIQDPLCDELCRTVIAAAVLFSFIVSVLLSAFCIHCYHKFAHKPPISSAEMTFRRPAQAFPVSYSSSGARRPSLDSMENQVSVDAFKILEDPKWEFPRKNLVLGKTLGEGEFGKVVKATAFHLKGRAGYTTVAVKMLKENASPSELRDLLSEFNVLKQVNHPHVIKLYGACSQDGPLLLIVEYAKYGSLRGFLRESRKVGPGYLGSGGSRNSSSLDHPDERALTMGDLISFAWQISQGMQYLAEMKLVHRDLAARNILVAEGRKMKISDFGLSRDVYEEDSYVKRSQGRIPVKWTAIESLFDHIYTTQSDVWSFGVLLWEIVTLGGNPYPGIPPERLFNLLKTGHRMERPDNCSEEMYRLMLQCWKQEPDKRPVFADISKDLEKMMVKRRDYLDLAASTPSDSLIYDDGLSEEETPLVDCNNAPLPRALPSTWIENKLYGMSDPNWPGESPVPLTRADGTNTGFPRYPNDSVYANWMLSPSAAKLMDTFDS
T4 sequence (P80192 whole entry): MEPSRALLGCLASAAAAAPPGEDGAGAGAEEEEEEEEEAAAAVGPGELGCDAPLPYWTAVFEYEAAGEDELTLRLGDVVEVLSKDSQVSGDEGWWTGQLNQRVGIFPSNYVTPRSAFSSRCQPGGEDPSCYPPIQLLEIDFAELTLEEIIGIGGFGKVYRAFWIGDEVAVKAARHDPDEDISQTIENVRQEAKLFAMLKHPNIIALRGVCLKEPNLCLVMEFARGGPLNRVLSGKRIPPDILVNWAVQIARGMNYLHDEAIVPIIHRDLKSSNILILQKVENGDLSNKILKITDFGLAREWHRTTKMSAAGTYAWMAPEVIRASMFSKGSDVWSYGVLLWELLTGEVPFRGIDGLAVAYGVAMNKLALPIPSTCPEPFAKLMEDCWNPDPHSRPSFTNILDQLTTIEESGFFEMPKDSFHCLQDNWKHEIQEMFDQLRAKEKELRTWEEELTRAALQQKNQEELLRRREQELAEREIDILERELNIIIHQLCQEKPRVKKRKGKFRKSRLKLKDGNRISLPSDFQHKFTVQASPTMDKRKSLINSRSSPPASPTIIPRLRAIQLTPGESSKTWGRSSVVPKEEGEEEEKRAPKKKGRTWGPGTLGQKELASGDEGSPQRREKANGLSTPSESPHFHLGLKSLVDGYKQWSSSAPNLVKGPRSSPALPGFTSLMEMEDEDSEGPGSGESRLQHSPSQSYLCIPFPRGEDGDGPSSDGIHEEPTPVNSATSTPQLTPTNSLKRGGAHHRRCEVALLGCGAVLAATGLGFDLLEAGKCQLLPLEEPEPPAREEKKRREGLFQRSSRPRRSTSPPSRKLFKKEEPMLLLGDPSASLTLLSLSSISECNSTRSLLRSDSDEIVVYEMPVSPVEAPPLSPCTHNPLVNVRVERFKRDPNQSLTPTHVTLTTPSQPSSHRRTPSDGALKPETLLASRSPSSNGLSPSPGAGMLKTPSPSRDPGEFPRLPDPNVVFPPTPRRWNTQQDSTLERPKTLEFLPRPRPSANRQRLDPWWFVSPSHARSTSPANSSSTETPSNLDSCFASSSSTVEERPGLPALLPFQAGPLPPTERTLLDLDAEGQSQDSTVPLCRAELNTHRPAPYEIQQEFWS

With `Nc1cc(C(F)(F)F)c(-c2cc(N3CCOCC3)nc(N3CCOCC3)n2)cn1` [Buparlisib], the remaining activity at 1 µM is 100% in experiment [1]; 92% in [2]; 100% in experiment [3]; 92% in experiment [4]; 99% in experiment [5] (ABL1(H396P)-nonphosphorylated); 96% in experiment [5] (ABL1(H396P)-phosphorylated). Also, the remaining activity at 1 µM in experiment [6] was determined as 99%; in [7], 85%; in experiment [8], 100%; in experiment [9] it was 100%; in experiment [10], 73%. Besides, the remaining activity at 10 µM in experiment [1] (setting [11]) came to 100%; in experiment [2] (10 µM, read-out: TESK1 (% of control at 10 µM)), 100%; in [3] (10 µM, read-out: TLK1 (% of control at 10 µM)), 82%; in experiment [4] (setting [11]), 99%; in experiment [5] (ABL1(H396P)-nonphosphorylated) it was 100%; in [5] (ABL1(H396P)-phosphorylated), 100%. Moreover, the remaining activity at 10 µM in experiment [6] (setting [11]) was found to be 92%; in experiment [7] (setting [11]), 92%; in experiment [8] (setting [11]), 100%; in experiment [9] (10 µM, read-out: RET(M918T) (% of control at 10 µM)), 95%; in experiment [10] (setting [11]), 100%.

For the compound `Cn1c(=O)n(-c2ccc(C(C)(C)C#N)cc2)c2c3cc(-c4cnc5ccccc5c4)ccc3ncc21` [Dactolisib, 2-methyl-2-[4-(3-methyl-2-oxo-8-quinolin-3-yl-2,3-dihydroimidazo[4,5-c]quinolin-1-yl)-phenyl] propionitrile], the remaining activity at 1 µM was 83% in experiment [1]; 100% in experiment [2]; 75% in experiment [3]; 86% in experiment [4]; 70% in [5] (ABL1(H396P)-nonphosphorylated); 79% in [5] (ABL1(H396P)-phosphorylated). The remaining activity at 1 µM amounted to 100% in experiment [6]; 100% in [7]; 73% in experiment [8]; 100% in experiment [9]; 56% in experiment [10].

For the compound `COc1ncc(-c2ccc3nccc(-c4ccnnc4)c3c2)cc1NS(=O)(=O)c1ccc(F)cc1F` [Omipalisib], the remaining activity at 1 µM in experiment [1] came to 100%; in [2] it was 73%; in experiment [3], 95%; in experiment [4] it was 100%; in experiment [5] (ABL1(H396P)-nonphosphorylated) it was 100%; in [5] (ABL1(H396P)-phosphorylated), 100%. Also, the remaining activity at 1 µM in experiment [6] turned out to be 78%; in [7] it was 96%; in experiment [8], 100%; in experiment [9] it was 100%; in [10], 94%.

In the case of `FC(F)c1nc2ccccc2n1-c1nc(N2CCOCC2)nc(N2CCOCC2)n1` [ZSTK474, 2-(difluoromethyl)-1-[4,6-di(4-morpholinyl)-1,3,5-triazin-2-yl]-1H-benzimidazole], the remaining activity at 1 µM in experiment [1] was 98%; in experiment [2] it was 96%; in experiment [3], 100%; in experiment [4] it was 99%; in [5] (ABL1(H396P)-nonphosphorylated), 100%; in experiment [5] (ABL1(H396P)-phosphorylated), 100%. Also, the remaining activity at 1 µM in [6] is 100%; in experiment [7], 88%; in [8], 93%; in experiment [9], 89%; in experiment [10], 100%.

(Values after article PMC5564600 (Oncotarget, 2017).)
